In patent publication US11634425B2, “Pharmaceutical compounds” (priority 2019, dated 2023):
Read-outs that look alike come from different tables or passages of the source.

Experiment: in vivo
Assay type: in vivo
Settings: male Beagle dog; for Vd / clearance / Cmax / half-life / AUC(0-t): in vivo; for Cmax / C 8 h: IV 0.5 mg/kg / PO 3 or 4 mg/kg study; for AUC(0-t): read-out: PO AUClast
Protocol: The pharmacokinetics of compounds were studied in vivo in dogs at doses of 0.5 mg/kg (IV) and 4 mg/kg (PO).
Male Beagle dogs were treated with experimental compounds via intravenous administration (n=2; 0.5 mg/kg) or oral administration (n=2; 3 or 4 mg/kg). Compounds were formulated as a solution in 20% dimethylacetamide/80% (2-hydroxypropyl)-β-cyclodextrin (20% w/v) (IV administration) or a solution in 10% dimethylacetamide/90% (2-hydroxypropyl)-β-cyclodextrin (20% w/v) (PO administration). […] Serial blood samples were collected from the jugular vein at 0.03, 0.08, 0.25, 0.5, 1, 2, 4, 6, 8 and 24 h post IV dosing of compound, and at 0.08, 0.25, 0.5, 1, 2, 4, 6, 8 and 24 h post oral dosing of compound, and plasma was prepared by centrifugation and stored immediately at −80° C. Samples were subsequently thawed, prepared for analysis by protein precipitation with acetonitrile, and analysed by tandem LCMS using electrospray ionisation using a matrix-matched calibration curve. PK parameters were calculated from the resulting data.

[1] = IV 0.5 mg/kg, read-out: IV t1/2 (converted)
[2] = PO 3 or 4 mg/kg, read-out: PO t1/2 (converted)

| SMILES | Vd (IV 0.5 mg/kg) | clearance (IV 0.5 mg/kg) | Cmax | half-life [1] | AUC(0-t) (PO 3 or 4 mg/kg) | half-life [2] | C 8 h | F (IV 0.5 mg/kg, PO 3 or 4 mg/kg) |
| --- | --- | --- | --- | --- | --- | --- | --- | --- |
| O=C(N[C@H]1N=C(c2ccccc2)c2ccccc2NC1=O)c1c(-c2ccccc2F)nn2cccnc12 [Example 2, 2-(2-Fluorophenyl)-N-[(3S)-2-oxo-5-phenyl-1,3-dihydro-1,4-benzodiazepin-3-yl]pyrazolo[1,5-a]pyrimidine-3-carboxamide] | 0.92 L/kg | 1.3 mL/min/kg | 1920 ng/mL | 9.8 h | 22300 ng·h/mL | 11.1 h | 968 ng/mL | 55% |
| Cc1ccc(-c2nn3cccnc3c2C(=O)N[C@H]2N=C(c3ccccc3)c3cccc(F)c3NC2=O)cn1 [Example 50, N-[(3S)-9-fluoro-2-oxo-5-phenyl-1,3-dihydro-1,4-benzodiazepin-3-yl]-2-(6-methylpyridin-3-yl)pyrazolo[1,5-a]pyrimidine-3-carboxamide] | 1.3 L/kg | 1.7 mL/min/kg | 1200 ng/mL | 12.2 h | 13300 ng·h/mL | 16.1 h | 549 ng/mL | 65% |
| CCc1ccc(-c2nn3cccnc3c2C(=O)N[C@H]2N=C(c3ccccc3)c3cccc(F)c3NC2=O)cn1 [Example 55] | 0.47 L/kg | 1.5 mL/min/kg | 3210 ng/mL | 5.4 h | 20900 ng·h/mL | 6.1 h | 720 ng/mL | 65% |
